# Reference: US8063107B2, “Use of trans-pellitorin as flavor substance” (Symrise AG, priority 2002, dated 2011)
# Entries after “also recorded” stand apart in the source; their conditions may differ. Read-outs that look alike come from different tables or passages of the source.
# What was measured:
# [1] = test system: group of 6 to 8 testers; test: Tasting of trans-pellitorin in 11 wt. % sugar solution by a group of testers; assay type: in vivo; conditions: for sensory impression on tasting: approximately 5 ml swallowed
# Experimental: The trans-pellitorin was dissolved in ethanol and the ethanolic solution was then diluted with an 11 wt. % sugar solution (final concentration: c). For tasting, respectively approximately 5 ml of the sugar solution was respectively swallowed.
# [2] = cited from earlier work
Compound,sensory impression on tasting ([1]; c=10 ppm in 11 wt. % sugar solution),sensory impression on tasting ([1]; c=20 ppm in 11 wt. % sugar solution),"concentration in the final product at which a saliva inducing effect only is observed, no additional sensory impressions ([1]; final product, e.g. finished preparation)","sensory impression in taste research ([1]; taste research, general statement)","sensory impression ([2]; J. Agric. Food Chem. 1981, 29, 115, Fitoterapia 2001, 72, 197)","sensory impression on tasting in the pure state ([2]; pure state, J. Am. Chem. Soc. 1953, 75, 2584-2586)","sensory impression ([2]; Lebensm.-Wiss. U.-Technol. 1992, 25, 417-421)"
"CCCCC/C=C/C=C/C(=O)NCC(C)C [trans-pellitorin, 2E,4E-decadienoic acid-N-isobutylamide]","salivation inducing, slightly prickly, not spicy hot","salivation inducing, slightly numbing, slightly fatty, weakly fruity, prickly, persistent, not spicy hot",below 20 ppm,"pleasant saliva-inducing and slightly prickly sensory impression, with relatively prolonged effect",primarily numbing,"besides an elevated saliva flow, a strong burning effect on the tongue",
"C/C=C/C=C\CC/C=C/C(=O)NCC(C)C [spilanthol, 2E,6Z,8E-decatrienoic acid-N-isobutylamide, reference compound]",,,,,,,strongly salivation inducing and tingly or prickly; also recorded: spicy-hot and strongly numbing as well as an astringent
